Assay results as given in US20170247446A1, “TARGETING K-RAS-MEDIATED SIGNALING PATHWAYS AND MALIGNANCY BY ANTI-hLIF ANTIBODIES” (The Regents of the University of California, priority 2014, published 2017).

Test system: PANC2.03 subcutaneous tumors
Assay: Drug sensitization assay, PANC2.03 subcutaneous tumors in nude mice
Format: in vivo
Experimental: FIG. 5. […] (B) 50,000 cells of PANC2.03 were subcutaneously injected into nude mice for the tumor initiation assay. The anti-LIF AB (clone D25.1.4) was given before the tumor inoculation at 10 mg/kg. The treatment was given three times a week. […] (C) In drug sensitization assay, 0.2×10^6 cells of PANC2.03 cells were first subcutaneously injected into nude mice. […] The mice were randomly separated into 4 different groups: control, Ab only, gemcitabine only, and combination. […] (D) Tumor volume changing curve in the PANC2.03 subcutaneous tumors with the treatment model of (C). […] Tumor proliferation rate=(Tumor vol on the later day−Tumor vol on the initial day)/Tumor vol on the initial day*100. […] The response to gemcitabine was analyzed in pancreatic cancer cells. […] The effects of LIF-neutralizing antibody were also tested in mouse models. […] In a drug sensitization assay, PANC2.03 cells were subcutaneously injected into nude mice to form tumors, then the mice were treated with anti-LIF antibody, gemcitabine, or a combination of anti-LIF antibody and gemcitabine.

Which results are given for Nc1ccn([C@@H]2O[C@H](CO)[C@@H](O)C2(F)F)c(=O)n1 [gemcitabine]?
complete regressions of tumors (0.2×10^6 PANC2.03 cells s.c., tumors formed within 14 days post-inoculation, then treatment, FIG. 5C): did not lead to the tumor regressions; tumor proliferation rate ((Tumor vol on the later day−Tumor vol on the initial day)/Tumor vol on the initial day*100, FIG. 5E): still had a positive growth rate; fold change on tumor volumes (FIG. 5F): still had a positive growth rate
